Converted amounts (≈) assume the structure as drawn. Values belong to the molecule of their own block, whether it stands above or below them.
Experiments:
[1] = molecular target: T1, Tyrosine-protein kinase Lck (Homo sapiens, UniProt P06239); test: Inhibition of human LCK
[2] = molecular target: T2, Proto-oncogene tyrosine-protein kinase Src (Homo sapiens, UniProt P12931); test: Inhibition of SRC (unknown origin)
[3] = tested on: MDA-MB-231; test: Antiproliferative activity against human MDA-MB-231 cells; assay type: functional, cell-based
[4] = molecular target: Mast/stem cell growth factor receptor Kit (Homo sapiens, UniProt P10721); test: Inhibition of c-Kit (unknown origin)
[5] = molecular target: T1, Tyrosine-protein kinase Lck
[6] = tested on: PC-3; test: Antiproliferative activity against human PC-3 cells; assay type: functional, cell-based
[7] = molecular target: Tyrosine-protein kinase Yes (Homo sapiens, UniProt P07947); test: Inhibition of YES1 (unknown origin)
[8] = molecular target: Vascular endothelial growth factor receptor 1 (Homo sapiens, UniProt P17948); test: Inhibition of VEGFR-1 (unknown origin)
[9] = Half life in mouse at 10 mg/kg, po by LC-MS/MS analysis; assay type: ADME, organism-based; details: in vivo
[10] = molecular target: T2, Proto-oncogene tyrosine-protein kinase Src
[11] = molecular target: Fibroblast growth factor receptor 1 (Homo sapiens, UniProt P11362); test: Inhibition of FGFR1 (unknown origin)
[12] = tested on: Calu-3; test: Growth inhibition of human Calu-3 cells; assay type: functional
[13] = tested on: PC-9; test: Antiproliferative activity against human PC-9 cells harboring EGFR L858R mutant assessed as reduction in cell viability measured after 72 hrs by SRB assay; assay type: functional, cell-based; details: PC-9, 72 h
[14] = tested on: NCI-H1975; test: Growth inhibition of human NCI-H1975 cells; assay type: functional
[15] = molecular target: Voltage-gated inwardly rectifying potassium channel KCNH2 (Homo sapiens, UniProt Q12809); test: Inhibition of hERG; assay type: toxicity
[16] = Aqueous solubility of compound at pH 7.4 by LC-MS/MS analysis; assay type: physicochemical; details: buffer
[17] = tested on: PC-9; test: Growth inhibition of human PC-9 cells; assay type: functional
[18] = Anticancer activity against human NCI-H1975 cells harboring EGFR L858R/T790M mutant assessed as reduction in cell viability measured after 72 hrs by MTT assay; assay type: functional, cell-based; details: NCI-H1975, 72 h
[19] = Oral bioavailability in rat at 5 mg/kg measured for 24 hrs by LC-MS/MS analysis; assay type: ADME, organism-based; details: in vivo
[20] = Solubility in PBS at pH 7.4 incubated for 24 hrs by HPLC analysis; assay type: physicochemical
[21] = tested on: Calu-6; test: Antitumor activity against human Calu-6 cells xenografted in athymic nude mouse assessed as tumor growth inhibition at 12.5 mg/kg, po administered once daily for 21 days relative to control; assay type: functional; details: Calu-6, 504 h, time 21 day, read-out: TGI
[22] = tested on: Calu-6; test: Antitumor activity against human Calu-6 cells xenografted in athymic nude mouse assessed as tumor growth inhibition at 25 mg/kg, po administered once daily for 21 days relative to control; assay type: functional; details: Calu-6, 504 h, time 21 day, read-out: TGI
[23] = tested on: Calu-6; test: Antitumor activity against human Calu-6 cells xenografted in athymic nude mouse assessed as tumor growth inhibition at 50 mg/kg, po administered once daily for 21 days relative to control; assay type: functional; details: Calu-6, 504 h, time 21 day, read-out: TGI
[24] = Half life in rat at 5 mg/kg, po; assay type: ADME, organism-based; details: in vivo
[25] = tested on: Calu-6; test: Antitumor activity against human Calu-6 cells xenografted in athymic nude mouse assessed as tumor growth inhibition at 100 mg/kg, po administered once daily for 21 days relative to control; assay type: functional; design: scale not given: the % may be the effect or the level left; details: time 21 day
[26] = tested on: ACHN; test: Antiproliferative activity against human ACHN cells assessed as reduction in cell viability measured after 48 hrs by SRB assay; assay type: functional, cell-based
[27] = tested on: HT-29; test: Antiproliferative activity against human HT-29 cells assessed as reduction in cell viability after 72 hrs by MTS assay; assay type: functional, cell-based; details: HT-29, 72 h
[28] = tested on: NCI-H1975; test: Antiproliferative activity against human NCI-H1975 cells assessed as reduction in cell viability after 24 hrs by MTT assay; assay type: functional, cell-based; details: NCI-H1975, 24 h
[29] = tested on: PC-9; test: Antiproliferative activity against human PC-9 cells assessed as reduction in cell growth incubated for 72 hrs by MTT assay; assay type: functional, cell-based; details: PC-9, 72 h
[30] = tested on: HT-29; test: Antitumor activity against human HT-29 cells xenografted in athymic nude mouse assessed as tumor growth inhibition at 25 mg/kg, ip administered once daily for 21 days relative to control; assay type: functional; details: HT-29, 504 h, time 21 day, read-out: TGI
[31] = tested on: HT-29; test: Antitumor activity against human HT-29 cells xenografted in athymic nude mouse assessed as tumor growth inhibition at 50 mg/kg, po administered once daily for 21 days relative to control; assay type: functional; details: HT-29, 504 h, time 21 day, read-out: TGI
[32] = tested on: K562; test: Antiproliferative activity against human K562 cells assessed as reduction in cell growth; assay type: functional, cell-based
[33] = molecular target: Hepatocyte growth factor receptor (Homo sapiens, UniProt P08581); test: Inhibition of c-Met (unknown origin)
[34] = tested on: SK-MEL-28; test: Antiproliferative activity against human SK-MEL-28 cells assessed as reduction in cell growth after 3 days by MTT assay; assay type: functional, cell-based; details: SK-MEL-28, 72 h
[35] = molecular target: Cyclin-dependent kinase 2 (Homo sapiens, UniProt P24941); test: Inhibition of CDK2 (unknown origin)

T2 sequence (P12931 2-536 limits assumed): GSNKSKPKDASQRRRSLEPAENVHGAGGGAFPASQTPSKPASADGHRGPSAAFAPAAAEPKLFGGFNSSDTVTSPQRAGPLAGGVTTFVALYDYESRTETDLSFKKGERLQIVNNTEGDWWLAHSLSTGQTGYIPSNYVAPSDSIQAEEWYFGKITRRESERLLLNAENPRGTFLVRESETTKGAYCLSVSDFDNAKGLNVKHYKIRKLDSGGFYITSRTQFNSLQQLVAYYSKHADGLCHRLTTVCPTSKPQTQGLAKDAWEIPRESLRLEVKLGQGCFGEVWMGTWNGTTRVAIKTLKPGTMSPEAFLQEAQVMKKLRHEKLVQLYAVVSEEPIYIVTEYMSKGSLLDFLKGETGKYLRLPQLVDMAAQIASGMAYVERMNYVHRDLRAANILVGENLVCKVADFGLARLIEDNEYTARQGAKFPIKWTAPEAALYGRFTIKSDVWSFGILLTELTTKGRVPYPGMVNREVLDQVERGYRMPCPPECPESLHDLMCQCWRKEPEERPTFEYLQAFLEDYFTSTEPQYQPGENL
Voltage-gated inwardly rectifying potassium channel KCNH2, sequence (Q12809 whole entry): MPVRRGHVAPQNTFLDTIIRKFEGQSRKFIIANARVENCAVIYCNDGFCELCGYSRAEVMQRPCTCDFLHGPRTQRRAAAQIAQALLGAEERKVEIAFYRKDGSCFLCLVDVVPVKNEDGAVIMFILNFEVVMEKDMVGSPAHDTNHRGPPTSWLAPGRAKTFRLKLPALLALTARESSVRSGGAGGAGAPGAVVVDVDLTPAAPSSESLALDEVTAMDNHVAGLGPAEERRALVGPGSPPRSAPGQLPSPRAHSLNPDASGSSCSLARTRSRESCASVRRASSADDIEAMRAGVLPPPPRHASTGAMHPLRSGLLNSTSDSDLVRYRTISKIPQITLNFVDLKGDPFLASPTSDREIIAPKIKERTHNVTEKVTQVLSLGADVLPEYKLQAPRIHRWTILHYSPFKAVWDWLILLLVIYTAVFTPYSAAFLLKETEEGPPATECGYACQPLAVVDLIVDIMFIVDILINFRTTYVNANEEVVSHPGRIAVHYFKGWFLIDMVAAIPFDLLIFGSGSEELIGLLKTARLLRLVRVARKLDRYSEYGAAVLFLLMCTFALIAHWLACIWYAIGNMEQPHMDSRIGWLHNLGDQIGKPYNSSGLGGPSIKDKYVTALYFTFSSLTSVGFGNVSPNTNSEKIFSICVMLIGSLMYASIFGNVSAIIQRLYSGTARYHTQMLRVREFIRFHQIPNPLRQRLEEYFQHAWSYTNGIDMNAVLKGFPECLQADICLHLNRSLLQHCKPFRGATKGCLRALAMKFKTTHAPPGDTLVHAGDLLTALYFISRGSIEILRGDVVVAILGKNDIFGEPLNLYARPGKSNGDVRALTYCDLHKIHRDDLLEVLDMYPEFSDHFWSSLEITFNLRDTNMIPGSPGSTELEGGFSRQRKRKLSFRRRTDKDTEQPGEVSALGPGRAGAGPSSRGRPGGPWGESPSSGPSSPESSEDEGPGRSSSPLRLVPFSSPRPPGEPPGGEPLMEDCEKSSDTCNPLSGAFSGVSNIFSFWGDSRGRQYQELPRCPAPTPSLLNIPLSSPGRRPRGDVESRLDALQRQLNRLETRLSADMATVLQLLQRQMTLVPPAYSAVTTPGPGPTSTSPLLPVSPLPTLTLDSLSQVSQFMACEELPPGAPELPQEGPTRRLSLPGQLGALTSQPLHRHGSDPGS
T1 sequence (P06239 whole entry): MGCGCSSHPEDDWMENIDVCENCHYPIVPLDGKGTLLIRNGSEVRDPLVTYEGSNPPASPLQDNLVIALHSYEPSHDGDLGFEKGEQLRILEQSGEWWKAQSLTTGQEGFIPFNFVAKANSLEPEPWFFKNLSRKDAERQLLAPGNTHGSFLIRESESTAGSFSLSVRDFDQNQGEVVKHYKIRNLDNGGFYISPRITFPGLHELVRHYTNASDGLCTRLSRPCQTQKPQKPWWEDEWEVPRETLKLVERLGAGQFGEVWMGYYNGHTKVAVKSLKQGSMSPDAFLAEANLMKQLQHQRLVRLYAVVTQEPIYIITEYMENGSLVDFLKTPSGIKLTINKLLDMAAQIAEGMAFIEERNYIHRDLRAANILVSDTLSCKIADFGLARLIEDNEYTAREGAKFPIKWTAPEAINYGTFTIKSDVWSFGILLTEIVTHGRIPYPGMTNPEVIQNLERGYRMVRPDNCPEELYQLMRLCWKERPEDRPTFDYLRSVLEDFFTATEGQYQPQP
Mast/stem cell growth factor receptor Kit, sequence (P10721 whole entry): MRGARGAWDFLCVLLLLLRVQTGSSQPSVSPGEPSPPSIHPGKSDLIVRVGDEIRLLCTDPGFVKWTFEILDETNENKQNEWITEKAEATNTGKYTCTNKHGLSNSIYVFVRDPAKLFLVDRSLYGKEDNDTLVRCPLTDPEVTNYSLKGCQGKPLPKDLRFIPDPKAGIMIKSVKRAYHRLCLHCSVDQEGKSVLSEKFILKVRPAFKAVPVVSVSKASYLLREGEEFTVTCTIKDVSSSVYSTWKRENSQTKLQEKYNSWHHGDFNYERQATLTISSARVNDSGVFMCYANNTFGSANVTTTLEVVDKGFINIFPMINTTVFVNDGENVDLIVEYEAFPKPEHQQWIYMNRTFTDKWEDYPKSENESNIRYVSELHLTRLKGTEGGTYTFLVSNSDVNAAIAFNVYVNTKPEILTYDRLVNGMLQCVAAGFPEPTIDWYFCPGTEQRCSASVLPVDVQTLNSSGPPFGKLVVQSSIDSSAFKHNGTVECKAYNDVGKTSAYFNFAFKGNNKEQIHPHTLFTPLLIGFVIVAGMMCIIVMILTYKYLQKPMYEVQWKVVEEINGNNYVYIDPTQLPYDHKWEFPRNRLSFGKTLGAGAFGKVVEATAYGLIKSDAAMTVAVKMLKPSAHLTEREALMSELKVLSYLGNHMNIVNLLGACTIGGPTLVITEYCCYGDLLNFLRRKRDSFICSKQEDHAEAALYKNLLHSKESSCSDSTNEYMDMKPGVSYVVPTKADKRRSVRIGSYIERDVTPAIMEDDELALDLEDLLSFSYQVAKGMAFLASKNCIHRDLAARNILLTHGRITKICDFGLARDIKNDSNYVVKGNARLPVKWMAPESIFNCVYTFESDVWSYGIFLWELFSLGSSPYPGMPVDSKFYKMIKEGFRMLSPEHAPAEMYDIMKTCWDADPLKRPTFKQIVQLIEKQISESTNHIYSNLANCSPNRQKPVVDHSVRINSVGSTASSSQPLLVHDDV
Fibroblast growth factor receptor 1, sequence (P11362 whole entry): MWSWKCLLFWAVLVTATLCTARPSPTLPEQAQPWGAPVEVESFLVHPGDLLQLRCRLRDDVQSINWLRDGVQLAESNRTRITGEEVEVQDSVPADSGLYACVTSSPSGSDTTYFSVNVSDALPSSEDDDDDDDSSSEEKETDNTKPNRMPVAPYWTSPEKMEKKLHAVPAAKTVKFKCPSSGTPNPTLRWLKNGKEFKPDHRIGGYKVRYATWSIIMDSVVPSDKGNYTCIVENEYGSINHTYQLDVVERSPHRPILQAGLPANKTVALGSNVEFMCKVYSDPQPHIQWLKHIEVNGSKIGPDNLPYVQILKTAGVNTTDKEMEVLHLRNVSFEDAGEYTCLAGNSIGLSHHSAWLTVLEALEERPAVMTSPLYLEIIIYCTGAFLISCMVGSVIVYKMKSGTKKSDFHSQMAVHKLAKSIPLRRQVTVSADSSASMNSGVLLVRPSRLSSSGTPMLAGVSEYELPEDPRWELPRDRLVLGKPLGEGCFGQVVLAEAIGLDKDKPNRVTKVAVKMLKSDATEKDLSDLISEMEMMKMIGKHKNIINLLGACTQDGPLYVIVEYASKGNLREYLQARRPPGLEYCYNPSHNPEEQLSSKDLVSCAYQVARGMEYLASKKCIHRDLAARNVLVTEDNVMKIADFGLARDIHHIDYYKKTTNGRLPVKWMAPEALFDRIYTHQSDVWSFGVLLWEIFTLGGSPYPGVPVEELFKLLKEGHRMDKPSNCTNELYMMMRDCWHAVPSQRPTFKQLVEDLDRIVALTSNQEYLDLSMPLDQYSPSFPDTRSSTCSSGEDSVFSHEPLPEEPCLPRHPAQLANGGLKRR
Tyrosine-protein kinase Yes, sequence (P07947 whole entry): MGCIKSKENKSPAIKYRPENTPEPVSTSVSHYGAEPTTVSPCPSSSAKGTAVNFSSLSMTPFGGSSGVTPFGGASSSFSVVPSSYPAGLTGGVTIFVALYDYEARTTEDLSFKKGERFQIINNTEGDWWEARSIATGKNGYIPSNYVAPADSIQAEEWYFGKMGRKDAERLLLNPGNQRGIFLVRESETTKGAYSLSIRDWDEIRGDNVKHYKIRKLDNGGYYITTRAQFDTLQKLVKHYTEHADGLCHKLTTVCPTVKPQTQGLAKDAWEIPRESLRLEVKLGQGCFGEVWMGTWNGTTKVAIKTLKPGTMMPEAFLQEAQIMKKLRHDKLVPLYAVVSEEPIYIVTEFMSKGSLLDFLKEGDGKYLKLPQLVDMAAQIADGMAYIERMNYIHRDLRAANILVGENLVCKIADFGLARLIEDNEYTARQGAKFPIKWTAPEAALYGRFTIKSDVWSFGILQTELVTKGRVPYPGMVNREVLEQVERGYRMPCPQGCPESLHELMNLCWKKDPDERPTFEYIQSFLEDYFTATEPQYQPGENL

SMILES: Cc1cc(Nc2ncc(C(=O)Nc3c(C)cccc3Cl)s2)nc(C)n1
- IC50 [1]: 1000 nM
- IC50 [2]: 0.5 nM
- IC50 [3]: 12 nM
- IC50 [4]: 5 nM
- IC50 [5]: 0.4 nM
- IC50 [6]: 9.4 nM
- IC50 [7]: 0.5 nM

- IC50 [8]: 3.4 nM
SMILES: COc1cc2nccc(Oc3ccc(NC(=O)NC4CC4)c(Cl)c3)c2cc1C(N)=O [LENVATINIB]

- half-life [9]: 3 h
SMILES: COc1cc2ncnc(Nc3ccc(F)c(Cl)c3)c2cc1OC

- IC50 [10]: 524 nM
SMILES: Cc1ccc(NC(=O)c2cc(C(F)(F)F)ccn2)cc1C#Cn1cnc2c(NC3CC3)ncnc21

- IC50 [11]: 1900 nM
SMILES: COc1cc(/C=C/c2n[nH]c3ccccc23)ccc1O

- GI50 [12]: 180 nM
- IC50 [13]: 2 nM
- GI50 [14]: 3 nM
- solubility [16]: 222 µM (≈ 112 µg/mL)
- GI50 [17]: 4 nM
SMILES: C=CC(=O)Nc1cc(Nc2ncc(Cl)c(-c3cnn4ccccc34)n2)c(OC)cc1C(C)CCNC (stereo unspecified)
- IC50 [15]: 6700 nM
- IC50 [18]: 0.6 nM

- bioavailability [19]: > 50%
- solubility at 24 h [20]: 330 µM (≈ 157 µg/mL)
- half-life [24]: 15 h
SMILES: COc1cc2/c(=N/c3ccc(Br)cc3F)nc[nH]c2cc1OCC1CCN(C)CC1 [VANDETANIB]
- inhibition in vivo at 12.5 mg/kg [21]: 36%
- inhibition in vivo at 25 mg/kg [22]: 51%
- inhibition in vivo at 50 mg/kg [23]: 67%
- Activity [25]: 79%

- IC50 [26]: 13 nM
- IC50 [27]: 1.5 nM
SMILES: Cn1c(=O)cc(Nc2ccc(I)cc2F)c2c(=O)n(C3CC3)c(=O)n(-c3ccccc3)c21

- IC50 [26]: 4800 nM
- IC50 [27]: 990 nM
SMILES: Cn1c(=O)cc(Nc2ccc(Cl)cc2)c2c(=O)n(-c3ccccc3)c(=O)n(-c3ccccc3)c21

- IC50 [28]: 80 nM
- IC50 [29]: 20 nM
SMILES: C=CC(=O)Nc1cccc(Nc2ncc(Cl)c(-c3c[nH]c4ccccc34)n2)c1

- IC50 [10]: 15500 nM
SMILES: Cc1ccc(NC(=O)c2cc(C(C)(C)C)on2)cc1/C=C/n1cnc2c(NC3CC3)ncnc21

- GI50 [12]: 846 nM
- IC50 [13]: 21 nM
- GI50 [14]: 17 nM
- solubility [16]: 43 µM (≈ 22.3 µg/mL)
- GI50 [17]: 19 nM
SMILES: C=CC(=O)Nc1cc(Nc2ncc(Cl)c(-c3cnn4ccccc34)n2)c(OC)cc1C1CC(N(C)C)C1 (stereo unspecified)
- IC50 [15]: 4000 nM
- IC50 [18]: 4 nM

- GI50 [12]: 380 nM
- IC50 [13]: 16 nM
- GI50 [14]: 7 nM
- solubility [16]: 28 µM (≈ 14.9 µg/mL)
- GI50 [17]: 10 nM
SMILES: C=CC(=O)Nc1cc(Nc2ncc(Cl)c(-c3cnn4ccccc34)n2)c(OC)cc1C1CC[C@@H](N(C)C)C1 (stereo partly specified)
- IC50 [15]: 5600 nM
- IC50 [18]: 2 nM

SMILES: COc1cc(Nc2c(C#N)cnc3cc(OCCCN4CCN(C)CC4)c(OC)cc23)c(Cl)cc1Cl [BOSUTINIB]
- inhibition in vivo at 25 mg/kg [30]: 44%
- inhibition in vivo at 50 mg/kg [31]: 35%

- IC50 [10]: 14100 nM
SMILES: Cc1ccc(NC(=O)c2cc(C(F)(F)F)ccn2)cc1/C=C/n1cnc2c(NC3CC3)ncnc21

- IC50 [26]: 325 nM
- IC50 [27]: 15 nM
SMILES: Cn1c(=O)cc(Nc2ccc(Br)cc2F)c2c(=O)n(C3CC3)c(=O)n(-c3ccccc3)c21

- IC50 [32]: 20 nM
- IC50 [33]: 121 nM
SMILES: COc1cc2nccc(Nc3ccc(NC(=S)NC(=O)Cc4ccccc4)cc3F)c2cc1OC

- EC50 [34]: 24 nM
SMILES: CC(=O)N1CCN(c2ccc(Nc3nccc(-c4sc(C(C)C)nc4-c4cccc(NS(=O)(=O)c5ccccc5)c4)n3)cn2)CC1

- IC50 [35]: 11 nM
SMILES: CC(=O)c1c(C)c2cnc(Nc3ccc(N4CCNCC4)cc3)nc2n(C2CCCC2)c1=O

- IC50 [35]: > 5000 nM
SMILES: CCOC(=O)c1c(C)c2cnc(Nc3ccc(N4CCNCC4)cc3)nc2n(C2CCCC2)c1=O
